Patent US20240383900A1, “SUBSTITUTED PYRAZOLO [1,5-A]PYRIMIDINE-7-AMINE COMPOUNDS AS CDK INHIBITORS AND THEIR THERAPEUTIC USE” (Carrick Therapeutics Limited, priority 2021, published 2024)
Where two headings read alike, the source gives them in different places.

Columns and labels:
Cyclin K = Cyclin K (Homo sapiens (Human), UniProt O75909); assay: Western blotting analysis of Cyclin K depletion in cell culture; assay type: cell-based; conditions: A673 cells, 1 μM test compound, 2 hours, absence and presence of 10 μM MLN4924
Procedure: A673 cells were incubated for 2 hours with of 1 μM compound in presence or in absence of 10 μM of the NAE (NEDD8 activating enzyme) inhibitor MLN4924 (Cell Signalling Technologies). Cells were washed 2× with cold Phosphate Buffered Saline (PBS, Sigma Aldrich), followed by the addition of lysis buffer for 15 minutes on ice before harvesting and centrifugation.
Protein content in the cell lysate was assessed by BCA assay (Thermo Fisher). Samples were then prepared with 4× Laemmlli Buffer (Bio-Rad) and heated to 95° C. for 5 minutes. Each sample was loaded onto a Mini-PROTEAN TGX Stain Free Gel (Bio-Rad) at 50 μg protein/well. SDS-PAGE was performed and then protein was transferred onto a PVDF membrane using a Trans-Blot® Turbo™ Midi PVDF Transfer Pack (Bio-Rad. Membranes were blocked in TBS-T (Invitrogen), 5% (w/v) milk powder (Marvel) overnight at 4° C.
Membranes were incubated with anti-CCNK antibody (rabbit) primary antibody (Abcam) and anti-GAPDH antibody (rabbit) in TBS-T for 2 hours. Membranes were then washed three times with TBS-T, before incubation secondary goat anti-rabbit HRP antibody (Cell Signalling Technologies) followed by 3× washing in TBS-T. Blots were imaged using a Chemidoc imager (Bio-Rad). Cyclin K depletion was measured as the observable drop in band intensity in compound treated samples relative to proteasome-inhibitor treated samples.
Cyclin K degradation was evaluated by Western blotting for cyclin K in A673 cells exposed to 1 μM test compound for 2 hours in the absence and presence of 10 μM MLN4924 (to inhibit proteosome activity).

A673 cells [1] = assay: Cytotoxicity in A673 cells (Cell Titer Glo viability); assay type: cell-based; conditions: for IC50: Homo sapiens; for Ratio of Biochemical Potency:Cellular Potency: CDK12 IC50 / A673 IC50
Procedure, shortened: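 Cells plated at 1.2×10^5 per well in DMEM+10% FBS, 24 h, then compound series ± MLN4924 (30 nM final) in 0.1% DMSO for 72 h. Viability by Cell Titer Glo luminescence, normalised to vehicle (100%) and 0.1% Triton x-100 (0%); MLN4924 curves normalised to MLN4924-treated controls.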

A673 cells [2] = assay: A673 cytotoxic potency shift in the presence of MLN4924 (cyclin K degrader activity); assay type: cell-based; conditions: for Change of cytotoxic potency in the presence of MLN4924: 72 hours, presence and absence of 30 nM MLN4924; for Cyclin K Degrader Activity (A673 potency shift + MLN4924): 30 nM MLN4924, 72 hours
Procedure: Inhibition of cell viability by test compounds was assessed in A673 cells (ATCC CRL-1598) and the compound mode of action was attributed to a “molecular-glue”/cyclin K-degradation mechanism by probing for a loss of compound potency in the presence of the NEDD8-activating enzyme inhibitor, MLN4924.
Cells were plated in 96-well plates at a density of […] viable cells per well in 200 μL fully supplemented growth medium (DMEM+10% heat inactivated foetal bovine serum) and incubated for 24 hours in standard tissue culture conditions. Compounds, including MLN4924, were solubilised in DMSO and then diluted in fully supplemented growth medium at 2× their final assay concentration such that the final DMSO concentration was 0.1%. Growth medium in the assay plates was replaced with 50 μL of growth medium containing 2×MLN4924 (final assay concentration: 30 nM, where tested) or vehicle only and 50 μL of growth medium containing a 2× compound concentration series or vehicle only such that each compound was at 1× final assay concentration in 100 μL.
Cells were then incubated for 72 hours in standard tissue culture conditions before viability was assessed using 50 μL Cell Titer Glo reagent (Promega) per well and luminescence measured on an EnVision plate reader. Data were normalised to vehicle control (100%) and cells treated with 0.1% Triton x-100 for 1 hour before viability measurement (0%; full cell kill). IC50 values were determined using a semi-logistic curve fit with parameters “top” fixed at 100% and “bottom” at or below 0%. Viability curves generated in the presence of MLN4924 were normalised and fixed to controls treated with MLN4924.

Human CDK12 wt/CycK = Human CDK12 wt/CycK (Homo sapiens (Human), UniProt Q9NYV4); assay: Radiometric protein kinase assay (33PanQinase Activity Assay), CDK12; assay type: biochemical; conditions: for CDK7/CDK12: ratio of CDK7 IC50 to CDK12 IC50, greater than 1 indicates selectivity for CDK12
Chain of Human CDK12 wt/CycK (Q9NYV4 whole entry): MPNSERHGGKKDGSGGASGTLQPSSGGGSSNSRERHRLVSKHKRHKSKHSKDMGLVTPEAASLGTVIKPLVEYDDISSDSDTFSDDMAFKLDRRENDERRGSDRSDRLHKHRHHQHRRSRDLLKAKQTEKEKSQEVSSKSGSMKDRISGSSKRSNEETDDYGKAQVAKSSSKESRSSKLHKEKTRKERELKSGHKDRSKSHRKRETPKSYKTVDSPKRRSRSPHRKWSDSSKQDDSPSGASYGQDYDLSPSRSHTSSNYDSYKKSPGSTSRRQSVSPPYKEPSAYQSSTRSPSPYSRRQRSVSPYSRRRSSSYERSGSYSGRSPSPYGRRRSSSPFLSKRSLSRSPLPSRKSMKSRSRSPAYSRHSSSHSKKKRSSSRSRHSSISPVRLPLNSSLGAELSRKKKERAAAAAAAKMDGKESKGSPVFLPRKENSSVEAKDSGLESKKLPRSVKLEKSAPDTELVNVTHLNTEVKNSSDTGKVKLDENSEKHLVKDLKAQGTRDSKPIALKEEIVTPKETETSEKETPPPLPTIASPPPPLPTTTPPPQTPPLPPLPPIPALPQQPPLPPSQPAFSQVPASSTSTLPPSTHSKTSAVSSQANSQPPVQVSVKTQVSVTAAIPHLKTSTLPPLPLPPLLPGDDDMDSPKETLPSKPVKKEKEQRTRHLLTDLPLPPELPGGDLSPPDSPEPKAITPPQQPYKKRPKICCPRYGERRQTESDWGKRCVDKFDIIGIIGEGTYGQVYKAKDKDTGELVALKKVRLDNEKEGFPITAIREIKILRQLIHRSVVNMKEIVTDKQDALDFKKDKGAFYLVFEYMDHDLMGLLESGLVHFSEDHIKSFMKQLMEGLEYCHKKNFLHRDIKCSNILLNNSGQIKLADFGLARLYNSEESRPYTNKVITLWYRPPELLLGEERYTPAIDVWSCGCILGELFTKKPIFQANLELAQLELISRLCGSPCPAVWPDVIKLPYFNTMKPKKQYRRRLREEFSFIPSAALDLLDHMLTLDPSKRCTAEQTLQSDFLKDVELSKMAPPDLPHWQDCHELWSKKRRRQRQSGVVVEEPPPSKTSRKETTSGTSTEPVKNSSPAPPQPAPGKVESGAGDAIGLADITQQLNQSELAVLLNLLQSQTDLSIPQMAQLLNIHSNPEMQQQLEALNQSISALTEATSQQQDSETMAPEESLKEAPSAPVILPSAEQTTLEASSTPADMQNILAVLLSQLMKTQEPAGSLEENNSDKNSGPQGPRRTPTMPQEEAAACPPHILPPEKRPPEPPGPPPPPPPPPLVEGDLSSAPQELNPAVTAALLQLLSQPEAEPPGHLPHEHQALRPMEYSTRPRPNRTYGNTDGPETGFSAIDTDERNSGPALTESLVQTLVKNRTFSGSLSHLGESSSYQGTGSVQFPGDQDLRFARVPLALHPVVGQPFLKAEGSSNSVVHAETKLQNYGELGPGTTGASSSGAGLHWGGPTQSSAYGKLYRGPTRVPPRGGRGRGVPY
Chain of Human CDK12 wt/CycK (O75909 whole entry partner): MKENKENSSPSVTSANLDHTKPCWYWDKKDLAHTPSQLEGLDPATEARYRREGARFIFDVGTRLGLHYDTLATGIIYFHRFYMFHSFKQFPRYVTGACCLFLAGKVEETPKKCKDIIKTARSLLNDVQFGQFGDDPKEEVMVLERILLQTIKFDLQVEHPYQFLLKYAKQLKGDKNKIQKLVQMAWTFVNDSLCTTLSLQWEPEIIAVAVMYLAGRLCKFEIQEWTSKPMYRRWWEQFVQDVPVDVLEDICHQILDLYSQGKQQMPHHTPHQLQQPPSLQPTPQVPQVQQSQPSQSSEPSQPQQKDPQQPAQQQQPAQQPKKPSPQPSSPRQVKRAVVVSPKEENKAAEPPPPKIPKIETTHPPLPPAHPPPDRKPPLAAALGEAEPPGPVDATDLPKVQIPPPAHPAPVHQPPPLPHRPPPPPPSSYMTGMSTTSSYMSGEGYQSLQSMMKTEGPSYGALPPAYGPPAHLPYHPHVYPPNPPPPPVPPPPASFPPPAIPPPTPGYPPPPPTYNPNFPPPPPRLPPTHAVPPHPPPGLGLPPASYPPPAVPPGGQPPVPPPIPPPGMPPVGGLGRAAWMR
Procedure, shortened: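 Radiometric 33P assay: ATP, test compound (in 10% DMSO) and premixed substrate/enzyme incubated 60 min at 30 °C, stopped with 2% H3PO4. 33Pi incorporation counted by scintillation; least-squares curve fit.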

Human CDK7/CycH/MAT1 = Human CDK7/CycH/MAT1 (Homo sapiens (Human), UniProt P50613); assay: Radiometric protein kinase assay (33PanQinase Activity Assay), CDK7; assay type: biochemical; conditions: ATP 3 μM
Chain of Human CDK7/CycH/MAT1 (P50613 whole entry): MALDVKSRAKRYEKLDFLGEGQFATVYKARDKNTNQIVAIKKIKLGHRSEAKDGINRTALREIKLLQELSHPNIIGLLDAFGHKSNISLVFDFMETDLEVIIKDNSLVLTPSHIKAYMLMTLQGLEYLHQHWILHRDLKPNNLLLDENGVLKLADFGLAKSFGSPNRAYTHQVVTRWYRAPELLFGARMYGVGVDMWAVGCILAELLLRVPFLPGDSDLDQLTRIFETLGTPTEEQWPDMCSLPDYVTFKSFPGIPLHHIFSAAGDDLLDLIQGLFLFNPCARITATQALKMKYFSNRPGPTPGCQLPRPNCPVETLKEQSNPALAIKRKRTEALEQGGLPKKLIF
Chain of Human CDK7/CycH/MAT1 (P51946 whole entry partner): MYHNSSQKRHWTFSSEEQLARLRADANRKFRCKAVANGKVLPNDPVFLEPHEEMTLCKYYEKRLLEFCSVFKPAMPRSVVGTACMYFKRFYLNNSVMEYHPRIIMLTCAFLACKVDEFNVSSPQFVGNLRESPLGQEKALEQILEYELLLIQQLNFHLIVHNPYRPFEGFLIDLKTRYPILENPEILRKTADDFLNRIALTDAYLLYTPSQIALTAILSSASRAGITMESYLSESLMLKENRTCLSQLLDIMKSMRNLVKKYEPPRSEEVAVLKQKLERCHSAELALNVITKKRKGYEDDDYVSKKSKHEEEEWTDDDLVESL
Chain of Human CDK7/CycH/MAT1 (P51948 whole entry partner): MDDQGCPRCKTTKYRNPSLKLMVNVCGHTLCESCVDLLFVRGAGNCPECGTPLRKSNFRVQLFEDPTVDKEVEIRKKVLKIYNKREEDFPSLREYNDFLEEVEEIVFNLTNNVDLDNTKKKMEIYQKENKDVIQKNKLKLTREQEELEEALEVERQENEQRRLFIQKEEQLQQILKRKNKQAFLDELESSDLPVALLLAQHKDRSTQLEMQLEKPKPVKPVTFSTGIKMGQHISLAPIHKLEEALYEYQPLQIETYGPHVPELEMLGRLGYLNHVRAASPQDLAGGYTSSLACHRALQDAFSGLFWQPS

[3] = A673, read-out: Cellular Potency IC50 (nM) (in A673 cells)
[4] = A673 cells, 72 hours, read-out: A673 IC50
[5] = ATP 0.3 μM, read-out: CDK12 IC50
[6] = read-out: CKD12 Biochemical Potency IC50

| IC50 (Human CDK12 wt/CycK; [5]) [nM] | CDK7/CDK12 (Human CDK12 wt/CycK) | IC50 (Human CDK12 wt/CycK; [6]) [nM] | IC50 (Human CDK7/CycH/MAT1) [nM] | SMILES | Cyclin K degradation by Western blotting (Cyclin K) | IC50 (A673 cells [1]; [3]) [nM] | IC50 (A673 cells [1]; [4]) [nM] | Change of cytotoxic potency in the presence of MLN4924 (A673 cells [2]) | Ratio of Biochemical Potency:Cellular Potency (A673 cells [1]) | Cyclin K Degrader Activity (A673 potency shift + MLN4924) (A673 cells [2]) |
| --- | --- | --- | --- | --- | --- | --- | --- | --- | --- | --- |
|  |  |  |  | CC[C@H](CO)Nc1nc(NCc2ccc(-c3ccccn3)cc2)c2ncn(C(C)C)c2n1 [CR8, reference compound] | did cause proteosomal dependent degradation of Cyclin K | 84.5 | 84.5 | a decrease in potency |  |  |
| 34 | 3.3 | 34 | 112 | CCc1cnn2c(NCc3ccc(-c4ccccn4)cc3)cc(NC[C@H]3CCNC[C@@H]3O)nc12 [PPA-005, (3R,4R)-4-(((3-ethyl-7-((4-(pyridin-2-yl)benzyl)amino)pyrazolo[1,5-a]pyrimidin-5-yl)amino)methyl)piperidin-3-ol] | found to degrade Cyclin K | 1.1 | 1.1 | a significant decrease in cytotoxic potency | 30.91 | ++ (>2 and ≤5 fold change.) |
| 51 | 6.1 | 51 | 312 | O[C@H]1CNCC[C@@H]1CNc1cc(NCc2ccc(-c3ccccn3)cc2)n2ncc(C3CC3)c2n1 [PPA-006] | found to degrade Cyclin K | 3.5 | 3.5 | a significant decrease in cytotoxic potency | 14.57 | +++ (>5 fold change.) |
|  |  | 160 |  | CN(C)C/C=C/C(=O)Nc1ccc(C(=O)N2CCC[C@@H](Nc3ncc(Cl)c(-c4c[nH]c5ccccc45)n3)C2)cc1 [THZ-531, reference compound] | no protesomal dependent Cyclin K degradation | 210 |  |  | 0.74 | − (≤1 fold change.) |
